According to PubChem BioAssay AID1259407 (Chemical Carcinogenesis Research Information System (CCRIS), 2018):
Calls of active or inactive are those of the source. How the calls were made is not given here.

Tested on: CCRIS mutagenicity, Ames/micronucleus/aberration tests
Assay: CCRIS mutagenicity studies
[1] = Test System: AMES SALMONELLA TYPHIMURIUM, Strain/Indicator: TA97, Metabolic Activation: NONE, Method: PREINCUBATION
[2] = Test System: AMES SALMONELLA TYPHIMURIUM, Strain/Indicator: TA98, Metabolic Activation: NONE, Method: PREINCUBATION
[3] = Test System: AMES SALMONELLA TYPHIMURIUM, Strain/Indicator: TA100, Metabolic Activation: NONE, Method: PREINCUBATION
[4] = Test System: AMES SALMONELLA TYPHIMURIUM, Strain/Indicator: TA102, Metabolic Activation: NONE, Method: PREINCUBATION
[5] = Test System: AMES SALMONELLA TYPHIMURIUM, Strain/Indicator: TA98, Metabolic Activation: RAT, LIVER, S-9, AROCLOR 1254, Method: PREINCUBATION
[6] = Test System: AMES SALMONELLA TYPHIMURIUM, Strain/Indicator: TA100, Metabolic Activation: RAT, LIVER, S-9, AROCLOR 1254, Method: PREINCUBATION
[7] = Test System: AMES SALMONELLA TYPHIMURIUM, Strain/Indicator: TA1535, Metabolic Activation: NONE, Method: STANDARD PLATE
[8] = Test System: AMES SALMONELLA TYPHIMURIUM, Strain/Indicator: TA98, Metabolic Activation: NONE, Method: STANDARD PLATE
[9] = Test System: AMES SALMONELLA TYPHIMURIUM, Strain/Indicator: TA98, Metabolic Activation: RAT, LIVER, S-9, AROCLOR 1254, Method: STANDARD PLATE
[10] = Test System: AMES SALMONELLA TYPHIMURIUM, Strain/Indicator: TA100, Metabolic Activation: NONE, Method: STANDARD PLATE
[11] = Test System: AMES SALMONELLA TYPHIMURIUM, Strain/Indicator: TA100, Metabolic Activation: RAT, LIVER, S-9, AROCLOR 1254, Method: STANDARD PLATE

O=C(O)C(=O)C(=O)O
mutagenic call [1]: inactive; negative | mutagenic call (Test System: AMES SALMONELLA TYPHIMURIUM, Strain/Indicator: TA97, Metabolic Activation: RAT, LIVER, S-9, PHENOBARBITAL AND 5,6-BENZOFLAVONE, Method: PREINCUBATION): inactive; negative | mutagenic call [2]: inactive; negative | mutagenic call (Test System: AMES SALMONELLA TYPHIMURIUM, Strain/Indicator: TA98, Metabolic Activation: RAT, LIVER, S-9, PHENOBARBITAL AND 5,6-BENZOFLAVONE, Method: PREINCUBATION): inactive; negative | mutagenic call [3]: inactive; negative | mutagenic call (Test System: AMES SALMONELLA TYPHIMURIUM, Strain/Indicator: TA100, Metabolic Activation: RAT, LIVER, S-9, PHENOBARBITAL AND 5,6-BENZOFLAVONE, Method: PREINCUBATION): inactive; negative | mutagenic call [4]: inactive; negative | mutagenic call (Test System: AMES SALMONELLA TYPHIMURIUM, Strain/Indicator: TA102, Metabolic Activation: RAT, LIVER, S-9, PHENOBARBITAL AND 5,6-BENZOFLAVONE, Method: PREINCUBATION): inactive; negative | mutagenic call (Test System: AMES SALMONELLA TYPHIMURIUM, Strain/Indicator: TA104, Metabolic Activation: NONE, Method: PREINCUBATION): inactive; negative | mutagenic call (Test System: AMES SALMONELLA TYPHIMURIUM, Strain/Indicator: TA104, Metabolic Activation: RAT, LIVER, S-9, PHENOBARBITAL AND 5,6-BENZOFLAVONE, Method: PREINCUBATION): inactive; negative

N[C@@H](CSc1c(Cl)c(Cl)c(Cl)c(Cl)c1Cl)C(=O)O
mutagenic call [2]: inactive; negative | mutagenic call (Test System: AMES SALMONELLA TYPHIMURIUM, Strain/Indicator: TA98, Metabolic Activation: RAT, LIVER OR KIDNEY, MICROSOMES, Method: PREINCUBATION): inactive; negative | mutagenic call [3]: inactive; negative | mutagenic call (Test System: AMES SALMONELLA TYPHIMURIUM, Strain/Indicator: TA100, Metabolic Activation: RAT, LIVER OR KIDNEY, MICROSOMES, Method: PREINCUBATION): inactive; negative | mutagenic call [4]: inactive; negative | mutagenic call (Test System: AMES SALMONELLA TYPHIMURIUM, Strain/Indicator: TA102, Metabolic Activation: RAT, LIVER OR KIDNEY, MICROSOMES, Method: PREINCUBATION): inactive; negative | mutagenic call (Test System: AMES SALMONELLA TYPHIMURIUM, Strain/Indicator: TA2638, Metabolic Activation: NONE, Method: PREINCUBATION): inactive; negative | mutagenic call (Test System: AMES SALMONELLA TYPHIMURIUM, Strain/Indicator: TA2638, Metabolic Activation: RAT, LIVER OR KIDNEY, MICROSOMES, Method: PREINCUBATION): inactive; negative

O=c1c(=O)c2cccc3ccc4cccc1c4c32
mutagenic call [2]: inactive; negative | mutagenic call [5]: inactive; negative | mutagenic call [3]: inactive; negative | mutagenic call [6]: inactive; negative

CCN(C=O)N=O
mutagenic call [7]: active; positive | mutagenic call (Test System: E. COLI, Strain/Indicator: WU3610, Metabolic Activation: NONE, Method: SUSPENSION/PLATE): active; positive

COCC(O)Cn1ccnc1[N+](=O)[O-] (stereo not drawn)
mutagenic call (Test System: E. COLI, Strain/Indicator: WP2 UVRA, Metabolic Activation: NONE, Method: STANDARD PLATE): active; positive

O=[N+]([O-])c1cc2c(cc1O)[nH]c1ccccc12
mutagenic call (Test System: AMES SALMONELLA TYPHIMURIUM, Strain/Indicator: TA98(NR), Metabolic Activation: NONE, Method: STANDARD PLATE): active; positive | mutagenic call (Test System: AMES SALMONELLA TYPHIMURIUM, Strain/Indicator: TA98(NR), Metabolic Activation: RAT, LIVER, S-9, AROCLOR 1254, Method: STANDARD PLATE): active; positive | mutagenic call [8]: active; positive | mutagenic call [9]: active; positive

CC(=O)NSc1c2cc(O)ccc2nc2ccc(O)cc12
mutagenic call (Test System: AMES SALMONELLA TYPHIMURIUM, Strain/Indicator: TA97A, Metabolic Activation: NONE, Method: PREINCUBATION): active; positive

COc1cc2c(cc1OC)CN(N=O)CC2
mutagenic call [5]: active; positive | mutagenic call [6]: active; positive | mutagenic call (Test System: AMES SALMONELLA TYPHIMURIUM, Strain/Indicator: TA1535, Metabolic Activation: RAT, LIVER, S-9, AROCLOR 1254, Method: PREINCUBATION): active; positive | mutagenic call (Test System: AMES SALMONELLA TYPHIMURIUM, Strain/Indicator: TA1537, Metabolic Activation: RAT, LIVER, S-9, AROCLOR 1254, Method: PREINCUBATION): active; positive | mutagenic call (Test System: AMES SALMONELLA TYPHIMURIUM, Strain/Indicator: TA1538, Metabolic Activation: RAT, LIVER, S-9, AROCLOR 1254, Method: PREINCUBATION): active; positive

CN(C)c1ccc(/C=C/C(=O)c2ccccc2)cc1
mutagenic call [8]: inactive; negative | mutagenic call [9]: inactive; negative | mutagenic call [10]: inactive; negative | mutagenic call [11]: inactive; negative

Cc1ccc2c(c1)c(=NC(=O)c1ccc([N+](=O)[O-])cc1)sn2C(=O)c1ccc([N+](=O)[O-])cc1
mutagenic call (Test System: AMES SALMONELLA TYPHIMURIUM, Strain/Indicator: TA100, Metabolic Activation: S-9, Method: STANDARD PLATE): active; positive

OC[C@@H](O)[C@@H](O)[C@H](O)[C@H](O)CO
mutagenic call (End Point: IN VITRO CHROMOSOMAL ABERRATIONS, Test System: CHO CELLS, Metabolic Activation: NONE): inactive; negative | mutagenic call (End Point: IN VITRO CHROMOSOMAL ABERRATIONS, Test System: CHO CELLS, Metabolic Activation: RAT, LIVER, S-9, AROCLOR 1254): inactive; negative | mutagenic call [1]: inactive; negative | mutagenic call (Test System: AMES SALMONELLA TYPHIMURIUM, Strain/Indicator: TA97, Metabolic Activation: S-9, Method: PREINCUBATION): inactive; negative | mutagenic call [8]: inactive; negative | mutagenic call [9]: inactive; negative | mutagenic call [10]: inactive; negative | mutagenic call [11]: inactive; negative | mutagenic call [4]: inactive; negative | mutagenic call (Test System: AMES SALMONELLA TYPHIMURIUM, Strain/Indicator: TA102, Metabolic Activation: S-9, Method: PREINCUBATION): inactive; negative | mutagenic call [7]: inactive; negative | mutagenic call (Test System: AMES SALMONELLA TYPHIMURIUM, Strain/Indicator: TA1535, Metabolic Activation: RAT, LIVER, S-9, AROCLOR 1254, Method: STANDARD PLATE): inactive; negative | mutagenic call (Test System: AMES SALMONELLA TYPHIMURIUM, Strain/Indicator: TA1537, Metabolic Activation: NONE, Method: STANDARD PLATE): inactive; negative | mutagenic call (Test System: AMES SALMONELLA TYPHIMURIUM, Strain/Indicator: TA1537, Metabolic Activation: RAT, LIVER, S-9, AROCLOR 1254, Method: STANDARD PLATE): inactive; negative | mutagenic call (Test System: AMES SALMONELLA TYPHIMURIUM, Strain/Indicator: TA1538, Metabolic Activation: NONE, Method: STANDARD PLATE): inactive; negative | mutagenic call (Test System: AMES SALMONELLA TYPHIMURIUM, Strain/Indicator: TA1538, Metabolic Activation: RAT, LIVER, S-9, AROCLOR 1254, Method: STANDARD PLATE): inactive; negative | mutagenic call (Test System: E. COLI, Strain/Indicator: WP2, Metabolic Activation: NONE, Method: STANDARD PLATE): inactive; negative | mutagenic call (Test System: E. COLI, Strain/Indicator: WP2, Metabolic Activation: RAT, LIVER, S-9, AROCLOR 1254, Method: STANDARD PLATE): inactive; negative
